# Test: Dissolution of active ingredient in liquid epoxy resin mixture, by inspection
# Type: physicochemical
# Details: 1.0-1.5 g AI in 8 g 635 Thin Epoxy Resin and 4 g 556 2:1 Epoxy Hardener
# Procedure: Nine different individual resin mixtures were prepared by mixing together 8 g 635 Thin Epoxy Resin, 4 g 556 2:1 Epoxy Hardener and between 1.0 and 1.5 g of the following finely milled active ingredients: atrazine, azoxystrobin, bicylopyrone, cyproconazole, difenoconazole, mesotrione, prodiamine, thiabendazole, thiamethoxam. […] The samples were placed on a platform shaker overnight at room temperature and then examined by light microscopy. In every case the presence of a dispersion of epoxy resin particles of diameter approximately 100 microns was confirmed. Crystals of the active ingredient were visible inside the epoxy particles under polarized light, except that in the cases of bicyclopyrone and mesotrione individual crystals were not visible as these active ingredients had dissolved in the epoxy resin—in these cases the entire epoxy resin particle was slightly birefringent indicating the presence of crystal domains within the matrix.
row,SMILES,dissolution of active ingredient in the liquid resin
1,COCCOCc1nc(C(F)(F)F)ccc1C(=O)C1=C(O)C2CCC(C2)C1=O (stereo not drawn) [bicylopyrone],fully dissolved
2,CC(C1CC1)C(O)(Cn1cncn1)c1ccc(Cl)cc1 (stereo not drawn) [cyproconazole],most of the cyproconazole was dissolved
3,CS(=O)(=O)c1ccc(C(=O)C2C(=O)CCCC2=O)c([N+](=O)[O-])c1 [mesotrione],fully dissolved

# Reference: patent US11503827B2, “Stabilized chemical composition” (priority 2010, dated 2022)
